Experimental data published in patent US20230117470A1, “SUBSTITUTED PYRAZOLE COMPOUNDS AS TOLL RECEPTOR INHIBITORS” (BRISTOL-MYERS SQUIBB COMPANY, priority 2019, published 2023).

Experiments:
Type in all cases: cell-based
human TLR9 = target: T1, human TLR9 (Homo sapiens, UniProt Q9NR96); assay: TLR9 inhibition reporter assay (HEK-Blue cells, SEAP reporter, ODN2006 stimulation); details: HEK-Blue cells overexpressing human TLR9, SEAP reporter, ODN2006 5 nM
T1 construct: host or cells: HEK-Blue cells
T1 sequence (Q9NR96 26-1032): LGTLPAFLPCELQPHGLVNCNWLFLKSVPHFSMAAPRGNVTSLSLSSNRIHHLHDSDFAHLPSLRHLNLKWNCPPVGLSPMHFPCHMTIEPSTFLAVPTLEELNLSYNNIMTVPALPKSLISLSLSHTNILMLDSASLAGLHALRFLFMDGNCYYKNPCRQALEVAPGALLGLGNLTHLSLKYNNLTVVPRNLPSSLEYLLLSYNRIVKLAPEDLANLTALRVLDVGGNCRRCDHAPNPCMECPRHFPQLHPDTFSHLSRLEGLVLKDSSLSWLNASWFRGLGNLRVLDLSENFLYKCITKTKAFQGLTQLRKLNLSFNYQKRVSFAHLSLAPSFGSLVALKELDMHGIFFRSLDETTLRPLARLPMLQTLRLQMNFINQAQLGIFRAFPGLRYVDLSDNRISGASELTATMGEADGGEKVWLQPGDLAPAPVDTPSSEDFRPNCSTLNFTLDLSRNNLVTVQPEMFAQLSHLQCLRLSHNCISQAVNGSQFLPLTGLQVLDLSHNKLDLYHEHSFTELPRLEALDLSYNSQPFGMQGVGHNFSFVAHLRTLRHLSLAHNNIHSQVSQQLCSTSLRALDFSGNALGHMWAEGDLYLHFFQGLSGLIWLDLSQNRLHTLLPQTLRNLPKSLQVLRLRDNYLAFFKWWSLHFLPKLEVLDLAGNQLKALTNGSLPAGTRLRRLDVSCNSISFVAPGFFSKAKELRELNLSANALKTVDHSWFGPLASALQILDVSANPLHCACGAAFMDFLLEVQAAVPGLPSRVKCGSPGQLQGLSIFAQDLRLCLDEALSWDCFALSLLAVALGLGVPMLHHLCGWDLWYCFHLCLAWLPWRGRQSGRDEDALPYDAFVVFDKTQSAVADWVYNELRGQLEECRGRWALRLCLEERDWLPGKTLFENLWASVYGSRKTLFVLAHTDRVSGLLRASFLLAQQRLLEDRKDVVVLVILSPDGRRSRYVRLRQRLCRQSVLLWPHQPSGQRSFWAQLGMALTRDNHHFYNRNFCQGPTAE
Summary of the method: (§1)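 Ligand levels differed by receptor: TLR7 got gardiquimod at 7.5 μM, TLR8 got R848 at 15.9 μM, and TLR9 got ODN2006 at 5 nM, each added after a 30-min room-temperature compound exposure. Incubation lasted 22 h at 37° C before colorimetric SEAP detection.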

human TLR8 = target: T2, human TLR8 (Homo sapiens, UniProt Q9NR97); assay: TLR8 inhibition reporter assay (HEK-Blue cells, SEAP reporter, R848 stimulation); details: HEK-Blue cells overexpressing human TLR8, SEAP reporter, R848 15.9 μM
T2 construct: host or cells: HEK-Blue cells
T2 sequence (Q9NR97 27-1041): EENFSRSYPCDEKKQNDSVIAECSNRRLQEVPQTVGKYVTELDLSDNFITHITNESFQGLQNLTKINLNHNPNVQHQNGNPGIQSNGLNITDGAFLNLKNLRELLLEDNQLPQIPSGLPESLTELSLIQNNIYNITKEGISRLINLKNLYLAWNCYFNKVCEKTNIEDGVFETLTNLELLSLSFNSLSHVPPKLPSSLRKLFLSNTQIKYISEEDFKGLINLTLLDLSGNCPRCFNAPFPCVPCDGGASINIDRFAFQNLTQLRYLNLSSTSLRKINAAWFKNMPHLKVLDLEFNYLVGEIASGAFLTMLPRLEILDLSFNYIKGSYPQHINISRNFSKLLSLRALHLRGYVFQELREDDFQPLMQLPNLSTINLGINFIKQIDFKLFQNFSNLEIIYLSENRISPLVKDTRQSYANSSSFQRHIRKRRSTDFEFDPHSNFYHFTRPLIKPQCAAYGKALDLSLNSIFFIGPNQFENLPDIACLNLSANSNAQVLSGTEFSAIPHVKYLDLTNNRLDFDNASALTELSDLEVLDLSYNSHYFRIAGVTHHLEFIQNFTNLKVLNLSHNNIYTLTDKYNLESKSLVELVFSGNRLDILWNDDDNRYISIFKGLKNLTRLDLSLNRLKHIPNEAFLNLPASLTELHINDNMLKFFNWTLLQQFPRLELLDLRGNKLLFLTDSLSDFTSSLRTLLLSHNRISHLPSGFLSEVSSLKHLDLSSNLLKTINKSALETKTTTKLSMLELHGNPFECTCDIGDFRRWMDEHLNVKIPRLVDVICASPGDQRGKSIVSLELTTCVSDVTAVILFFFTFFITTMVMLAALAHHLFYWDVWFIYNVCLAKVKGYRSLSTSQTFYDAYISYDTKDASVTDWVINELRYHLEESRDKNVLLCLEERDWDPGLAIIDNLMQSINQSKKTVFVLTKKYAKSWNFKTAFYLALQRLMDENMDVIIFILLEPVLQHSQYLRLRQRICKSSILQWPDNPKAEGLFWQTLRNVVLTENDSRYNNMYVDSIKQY
Summary of the method: as §1

human TLR7 = target: T3, human TLR7 (Homo sapiens, UniProt Q9NYK1); assay: TLR7 inhibition reporter assay (HEK-Blue cells, SEAP reporter, gardiquimod stimulation); details: HEK-Blue cells overexpressing human TLR7, SEAP reporter, gardiquimod 7.5 μM
T3 construct: host or cells: HEK-Blue cells
T3 sequence (Q9NYK1 27-1049): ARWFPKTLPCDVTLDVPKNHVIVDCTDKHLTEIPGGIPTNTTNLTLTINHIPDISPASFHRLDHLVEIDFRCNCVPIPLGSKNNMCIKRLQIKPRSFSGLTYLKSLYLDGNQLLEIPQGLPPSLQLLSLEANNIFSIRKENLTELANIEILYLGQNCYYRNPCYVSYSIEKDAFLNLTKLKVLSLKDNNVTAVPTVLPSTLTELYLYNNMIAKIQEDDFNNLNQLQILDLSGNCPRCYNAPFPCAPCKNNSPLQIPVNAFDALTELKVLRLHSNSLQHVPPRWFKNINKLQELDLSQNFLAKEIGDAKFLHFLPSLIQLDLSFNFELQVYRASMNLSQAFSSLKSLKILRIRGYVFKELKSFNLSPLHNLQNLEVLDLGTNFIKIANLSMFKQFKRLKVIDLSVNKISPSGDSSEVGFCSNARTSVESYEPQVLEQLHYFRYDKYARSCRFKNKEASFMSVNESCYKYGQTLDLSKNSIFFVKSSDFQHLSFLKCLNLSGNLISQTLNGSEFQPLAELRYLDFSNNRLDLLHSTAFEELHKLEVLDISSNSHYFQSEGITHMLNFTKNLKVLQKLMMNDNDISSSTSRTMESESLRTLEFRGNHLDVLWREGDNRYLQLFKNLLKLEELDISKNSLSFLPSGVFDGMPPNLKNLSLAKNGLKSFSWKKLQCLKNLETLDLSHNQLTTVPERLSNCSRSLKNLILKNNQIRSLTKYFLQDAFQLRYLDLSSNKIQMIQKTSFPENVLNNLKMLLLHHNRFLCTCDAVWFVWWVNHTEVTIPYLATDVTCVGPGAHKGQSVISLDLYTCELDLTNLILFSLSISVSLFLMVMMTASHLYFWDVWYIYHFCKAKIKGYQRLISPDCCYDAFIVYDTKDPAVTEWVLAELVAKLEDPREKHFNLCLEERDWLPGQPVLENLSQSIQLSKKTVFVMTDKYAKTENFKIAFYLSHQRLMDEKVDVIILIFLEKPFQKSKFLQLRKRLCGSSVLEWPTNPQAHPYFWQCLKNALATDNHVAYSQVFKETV
Summary of the method: as §1

Cc1cc(-c2[nH]nc(-c3nc4c(s3)CN(C3COC3)CC4)c2C(C)C)cn2ncnc12 [Example 253]
IC50 (human TLR9): 23000 nM | IC50 (human TLR8): 3.01 nM | IC50 (human TLR7): 4.7 nM

Cc1cc(-c2[nH]nc(-c3nc4c(s3)CN(C3CCN(C(C)C)CC3)CC4)c2C(C)C)cn2ncnc12 [Example 254]
IC50 (human TLR9): 29200 nM | IC50 (human TLR8): 22.7 nM | IC50 (human TLR7): 26.8 nM

Cc1cc(-c2[nH]nc(-c3nc4c(s3)CN(CC(C)C)CC4)c2C(C)C)cn2ncnc12 [Example 255]
IC50 (human TLR9): 15100 nM | IC50 (human TLR8): 4.88 nM | IC50 (human TLR7): 6.86 nM

Cc1cc(-c2[nH]nc(-c3nc4c(s3)CN(C)CC4)c2C(C)C)cn2ncnc12 [Example 256]
IC50 (human TLR9): 16900 nM | IC50 (human TLR8): 31.3 nM | IC50 (human TLR7): 34.3 nM

CCNc1ccc2nc(-c3n[nH]c(-c4cc(C)c5ncnn5c4)c3C(C)C)sc2c1 [Example 257]
IC50 (human TLR9): 34900 nM | IC50 (human TLR8): 0.86 nM | IC50 (human TLR7): 13.6 nM

Cc1cc(-c2[nH]nc(-c3nc4ccc(NC(C)C)cc4s3)c2C(C)C)cn2ncnc12 [Example 258]
IC50 (human TLR9): 29400 nM | IC50 (human TLR8): 9.16 nM | IC50 (human TLR7): 36.5 nM

COc1cc(-c2[nH]nc(-c3nc4c(s3)CN(C(C)C)CC4)c2C(C)C)cn2ncnc12 [Example 259]
IC50 (human TLR9): > 50000 nM | IC50 (human TLR8): 13.8 nM | IC50 (human TLR7): 23.5 nM

CCCN1CCc2nc(-c3n[nH]c(-c4cc(OC)c5ncnn5c4)c3C(C)C)sc2C1 [Example 260]
IC50 (human TLR9): > 50000 nM | IC50 (human TLR8): 138 nM | IC50 (human TLR7): 170 nM

CCN1CCc2nc(-c3n[nH]c(-c4cc(OC)c5ncnn5c4)c3C(C)C)sc2C1 [Example 261]
IC50 (human TLR9): 17100 nM | IC50 (human TLR8): 2.26 nM | IC50 (human TLR7): 8.43 nM

COc1cc(-c2[nH]nc(-c3nc4c(s3)CN(C)CC4)c2C(C)C)cn2ncnc12 [Example 262]
IC50 (human TLR9): 18300 nM | IC50 (human TLR8): 17.5 nM | IC50 (human TLR7): 23.8 nM

COCCN1CCc2cc(-c3n[nH]c(-c4cc(C)c5ncnn5c4)c3C(C)C)ccc2C1 [Example 263, 6-(4-isopropyl-5-(8-methyl-[1,2,4]triazolo[1,5-a]pyridin-6-yl)-1H-pyrazol-3-yl)-2-(2-methoxyethyl)-1,2,3,4-tetrahydroisoquinoline]
IC50 (human TLR9): 18100 nM | IC50 (human TLR8): 4.48 nM | IC50 (human TLR7): 4.74 nM

Cc1cc(-c2[nH]nc(-c3ccc4c(c3)CCN(CC(C)(C)O)C4)c2C(C)C)cn2ncnc12 [Example 264]
IC50 (human TLR9): 22000 nM | IC50 (human TLR8): 22.9 nM | IC50 (human TLR7): 26.8 nM

Cc1cc(-c2[nH]nc(-c3nc4c(s3)CN(CC(C)(C)O)CC4)c2C(C)C)cn2ncnc12 [Example 265]
IC50 (human TLR9): 47700 nM | IC50 (human TLR8): 3.29 nM | IC50 (human TLR7): 14 nM

COCCN1CCc2nc(-c3n[nH]c(-c4cc(C)c5ncnn5c4)c3C(C)C)sc2C1 [Example 266]
IC50 (human TLR9): > 50000 nM | IC50 (human TLR8): 60.2 nM | IC50 (human TLR7): 119 nM

COCCNc1ccc2nc(-c3n[nH]c(-c4cc(C)c5ncnn5c4)c3C(C)C)sc2c1 [Example 267]
IC50 (human TLR9): > 50000 nM | IC50 (human TLR8): 7.16 nM | IC50 (human TLR7): 24.3 nM

Cc1cc(-c2[nH]nc(-c3ccc4c(c3)CCN(C(=O)CN(C)C)C4)c2C(C)C)cn2ncnc12 [Example 268, 2-(dimethylamino)-1-(6-(4-isopropyl-5-(8-methyl-[1,2,4]triazolo[1,5-a]pyridin-6-yl)-1H-pyrazol-3-yl)-3,4-dihydroisoquinolin-2(1H)-yl)ethan-1-one]
IC50 (human TLR9): > 50000 nM | IC50 (human TLR8): 65.1 nM | IC50 (human TLR7): 41.1 nM

Cc1cc(-c2[nH]nc(-c3nc4c(s3)CN(C(=O)C[C@H](C)O)CC4)c2C(C)C)cn2ncnc12 [Example 269]
IC50 (human TLR9): 6280 nM | IC50 (human TLR8): 2.55 nM | IC50 (human TLR7): 4.31 nM

Cc1cc(-c2[nH]nc(-c3nc4c(s3)CN(C(=O)CN(C)C)CC4)c2C(C)C)cn2ncnc12 [Example 270]
IC50 (human TLR9): 3460 nM | IC50 (human TLR8): 14 nM | IC50 (human TLR7): 8.99 nM

Cc1cc(-c2[nH]nc(-c3ccc4c(c3)CCN(CC(=O)N(C)C)C4)c2C(C)C)cn2ncnc12 [Example 271, 2-(6-(4-isopropyl-5-(8-methyl-[1,2,4]triazolo[1,5-a]pyridin-6-yl)-1H-pyrazol-3-yl)-3,4-dihydroisoquinolin-2(1H)-yl)-N,N-dimethylacetamide]
IC50 (human TLR9): 4560 nM | IC50 (human TLR8): 1.94 nM | IC50 (human TLR7): 0.96 nM

Cc1cc(-c2[nH]nc(-c3ccc4c(c3)CCN(CC(N)=O)C4)c2C(C)C)cn2ncnc12 [Example 272]
IC50 (human TLR9): > 50000 nM | IC50 (human TLR8): 122 nM | IC50 (human TLR7): 137 nM

CNC(=O)CN1CCc2cc(-c3n[nH]c(-c4cc(C)c5ncnn5c4)c3C(C)C)ccc2C1 [Example 273]
IC50 (human TLR9): 5550 nM | IC50 (human TLR8): 26.5 nM | IC50 (human TLR7): 13.7 nM

Cc1cc(-c2[nH]nc(-c3nc4c(s3)CN(CC(=O)N(C)C)CC4)c2C(C)C)cn2ncnc12 [Example 275]
IC50 (human TLR9): > 50000 nM | IC50 (human TLR8): 515 nM | IC50 (human TLR7): 413 nM

CC(=O)N1CCc2nc(-c3n[nH]c(-c4cc(C)c5ncnn5c4)c3C(C)C)sc2C1 [Example 276]
IC50 (human TLR9): > 50000 nM | IC50 (human TLR8): > 3130 nM | IC50 (human TLR7): 975 nM
